Results reported in patent US8003695B2 (Chroma Therapeutics Ltd., priority 2006, dated 2011).

Legend:
IKBKB (IKKβ) = target: T1, IKBKB (IKKβ) (Homo sapiens, UniProt O14920); assay: IKKβ Enzyme Assay (Z'-LYTE, Invitrogen); type: biochemical; conditions: ATP at or close to Km; read-out: Inhibitor activity versus IKKβ
T1 construct: purchased Invitrogen (Paisley, UK)
T1 sequence (O14920 1-756): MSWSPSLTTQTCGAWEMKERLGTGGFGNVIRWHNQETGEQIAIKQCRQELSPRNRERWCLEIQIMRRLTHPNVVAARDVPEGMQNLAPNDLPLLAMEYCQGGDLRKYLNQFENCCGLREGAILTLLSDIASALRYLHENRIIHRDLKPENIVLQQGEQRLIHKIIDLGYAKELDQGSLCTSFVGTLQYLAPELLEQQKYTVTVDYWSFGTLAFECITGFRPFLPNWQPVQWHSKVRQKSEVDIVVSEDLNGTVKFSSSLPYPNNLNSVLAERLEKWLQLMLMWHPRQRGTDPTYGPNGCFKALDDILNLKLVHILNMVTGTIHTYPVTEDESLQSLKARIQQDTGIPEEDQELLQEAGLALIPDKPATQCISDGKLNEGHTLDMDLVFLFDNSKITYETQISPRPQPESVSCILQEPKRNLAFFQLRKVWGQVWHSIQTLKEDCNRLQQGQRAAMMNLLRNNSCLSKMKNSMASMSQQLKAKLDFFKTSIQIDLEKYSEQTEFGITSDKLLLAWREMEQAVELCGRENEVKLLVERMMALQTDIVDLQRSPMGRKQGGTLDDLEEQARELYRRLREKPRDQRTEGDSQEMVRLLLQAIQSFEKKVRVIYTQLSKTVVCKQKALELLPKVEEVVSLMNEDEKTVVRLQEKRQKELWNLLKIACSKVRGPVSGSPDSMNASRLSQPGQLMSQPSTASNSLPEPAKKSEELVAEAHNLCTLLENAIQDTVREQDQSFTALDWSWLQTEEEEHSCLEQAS
How it was run: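 Z'-LYTE FRET assay with 0.9-8.0 ng human IKBKB, 2 μM Ser/Thr 05 peptide and ATP at or near Km in HEPES pH 7.5, 60 min at room temperature, then 60 min development. Coumarin/fluorescein emission ratio read; duplicate nine-step ⅓-log series from 10 μM; IC50 from sigmoidal fit.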

THP-1 cells = assay: LPS-Stimulation of THP-1 Cells, TNF-α release; type: cell-based; conditions: Homo sapiens, LPS 1 μg/ml, 6 hrs, read-out: Inhibitor activity versus THP-1 TNFα release
Description: LPS-Stimulation of THP-1 Cells
THP-1 cells were plated in 100 μl at a density of 4×10^4 cells/well in V-bottomed 96 well tissue culture treated plates and incubated at 37° C. in 5% CO2 for 16 hrs. 2 hrs after the addition of the inhibitor in 100 μl of tissue culture media, the cells were stimulated with LPS (E. coli strain 005:85, Sigma) at a final concentration of 1 μg/ml and incubated at 37° C. in 5% CO2 for 6 hrs. TNF-α levels were measured from cell-free supernatants by sandwich ELISA (R&D Systems #QTA00B)

human whole blood = assay: LPS-Stimulation of Human Whole Blood, TNF-α release; type: cell-based; conditions: LPS 100 ng/ml, 6 hrs, read-out: Inhibitor activity versus human whole blood TNFα release
Description: LPS-Stimulation of Human Whole Blood
Whole blood was taken by venous puncture using heparinised vacutainers (Becton Dickinson) and diluted in an equal volume of RPMI1640 tissue culture media (Sigma). 100 μl was plated in V-bottomed 96 well tissue culture treated plates. 2 hrs after the addition of the inhibitor in 100 μl of RPMI1640 media, the blood was stimulated with LPS (E. coli strain 005:B5, Sigma) at a final concentration of 100 ng/ml and incubated at 37° C. in 5% CO2 for 6 hrs. TNF-α levels were measured from cell-free supernatants by sandwich ELISA (R&D Systems #QTA00B)

Structure (SMILES)	IC50 (IKBKB (IKKβ))	IC50 (THP-1 cells)	IC50 (human whole blood)
NC(=O)Nc1sc(-c2cccc(CN[C@H](C(=O)OC3CCCC3)C3CCCCC3)c2)cc1C(N)=O [Example 10, Cyclopentyl (2S)-({3-[4-carbamoyl-5-(carbamoylamino)-2-thienyl]benzyl}amino)(cyclohexyl)acetate]	1000 to 5000 nM	< 1000 nM	1000 to 5000 nM
C[C@@H](O)[C@H](NCc1cccc(-c2cc(C(N)=O)c(NC(N)=O)s2)c1)C(=O)OC1CCCC1 [Example 13, Cyclopentyl N-{3-[4-carbamoyl-5-(carbamoylamino)thiophen-2-yl]benzyl}-L-threoninate]	< 1000 nM	< 1000 nM	< 1000 nM
CC(C)C[C@H](NCCc1cccc(-c2cc(C(N)=O)c(NC(N)=O)s2)c1)C(=O)OC1CCCC1 [Example 18, Cyclopentyl N-(2-{3-[4-carbamoyl-5-(carbamoylamino)-2-thienyl]phenyl}ethyl)-L-leucinate]	1000 to 5000 nM	< 1000 nM	1000 to 5000 nM
CC(C)C[C@H](NCCc1cc(-c2cc(C(N)=O)c(NC(N)=O)s2)ccc1F)C(=O)OC1CCCC1 [Example 22, Cyclopentyl N-(2-{5-[4-carbamoyl-5-(carbamoylamino)thiophen-2-yl]-2-fluorophenyl}ethyl)-L-leucinate]	1000 to 5000 nM	1000 to 5000 nM	1000 to 5000 nM
CC(C)C[C@H](NC/C=C/c1ccc(-c2cc(C(N)=O)c(NC(N)=O)s2)cc1F)C(=O)OC1CCCC1 [Example 31, Cyclopentyl N-[(2E)-3-{4-[4-carbamoyl-5-(carbamoylamino)thiophen-2-yl]-2-fluorophenyl}prop-2-en-1-yl]-L-leucinate]	1000 to 5000 nM	1000 to 5000 nM	1000 to 5000 nM
CC(C)C[C@H](NC/C=C/c1ccc(-c2cc(C(N)=O)c(NC(N)=O)s2)cc1Cl)C(=O)OC1CCCC1 [Example 32, Cyclopentyl N-[(2E)-3-{4-[4-carbamoyl-5-(carbamoylamino)thiophen-2-yl]-2-chlorophenyl}prop-2-en-1-yl]-L-leucinate]	1000 to 5000 nM	< 1000 nM	1000 to 5000 nM
Cc1cc(/C=C/CN[C@@H](CC(C)C)C(=O)OC2CCCC2)ccc1-c1cc(C(N)=O)c(NC(N)=O)s1 [Example 33, Cyclopentyl N-[(2E)-3-{4-[4-carbamoyl-5-(carbamoylamino)thiophen-2-yl]-3-methylphenyl}prop-2-en-1-yl]-L-leucinate]	> 5000 nM	< 1000 nM	1000 to 5000 nM
NC(=O)Nc1sc(-c2ccc(/C=C/CN[C@H](C(=O)OC3CCCC3)C3CCCCC3)cc2)cc1C(N)=O [Example 44, Cyclopentyl (2S)-{[(2E)-3-{4-[4-carbamoyl-5-(carbamoylamino)thiophen-2-yl]phenyl}prop-2-en-1-yl]amino}(cyclohexyl)ethanoate]	< 1000 nM	–	> 5000 nM
CC(C)(C)OC(=O)[C@@H](NC/C=C/c1ccc(-c2cc(C(N)=O)c(NC(N)=O)s2)cc1)C1CCCCC1 [Example 45, tert-butyl (2S)-{[(2E)-3-{4-[4-carbamoyl-5-(carbamoylamino)thiophen-2-yl]phenyl}prop-2-en-1-yl]amino}(cyclohexyl)ethanoate]	< 1000 nM	–	> 5000 nM

Further lines, results first:

IC50 (IKBKB (IKKβ))	IC50 (THP-1 cells)	IC50 (human whole blood)	Structure (SMILES)
1000 to 5000 nM	1000 to 5000 nM	1000 to 5000 nM	NC(=O)Nc1sc(-c2ccc(CN[C@H](C(=O)OC3CCCC3)c3ccccc3)cc2)cc1C(N)=O [Example 1, Cyclopentyl (2S)-({-4-[4-carbamoyl-5-(carbamoylamino)-2-thienyl]benzyl}amino)(phenyl)acetate]
< 1000 nM	> 5000 nM	1000 to 5000 nM	CC(C)C[C@H](NCc1ccc(-c2cc(C(N)=O)c(NC(N)=O)s2)cc1)C(=O)OC1CCCC1 [Example 2, Cyclopentyl N-{4-[4-carbamoyl-5-(carbamoylamino)-2-thienyl]benzyl}-L-leucinate]
< 1000 nM	> 5000 nM	1000 to 5000 nM	NC(=O)Nc1sc(-c2ccc(CN[C@@H](C(=O)OC3CCCC3)c3ccccc3)cc2)cc1C(N)=O [Example 4, Cyclopentyl (2R)-({4-[4-carbamoyl-5-(carbamoylamino)-2-thienyl]benzyl}amino)(phenyl)acetate]
< 1000 nM	< 1000 nM	1000 to 5000 nM	CC(C)C[C@H](NCc1cccc(-c2cc(C(N)=O)c(NC(N)=O)s2)c1)C(=O)OC1CCCC1 [Example 8, Cyclopentyl N-{3-[4-carbamoyl-5-(carbamoylamino)-2-thienyl]benzyl}-L-leucinate]
< 1000 nM	< 1000 nM	1000 to 5000 nM	NC(=O)Nc1sc(-c2cccc(CN[C@H](C(=O)OC3CCCC3)c3ccccc3)c2)cc1C(N)=O [Example 9, Cyclopentyl (2S)-({3-[4-carbamoyl-5-(carbamoylamino)-2-thienyl]benzyl}amino)(phenyl)acetate]
< 1000 nM	1000 to 5000 nM	1000 to 5000 nM	CC(C)(C)OC[C@H](NCc1cccc(-c2cc(C(N)=O)c(NC(N)=O)s2)c1)C(=O)OC1CCCC1 [Example 11, Cyclopentyl O-tert-butyl-N-{3-[4-carbamoyl-5-(carbamoylamino)thiophen-2-yl]benzyl}-L-serinate]
< 1000 nM	< 1000 nM	1000 to 5000 nM	CC(C)C[C@H](NCc1cccc(-c2cc(C(N)=O)c(NC(N)=O)s2)c1)C(=O)OC(C)(C)C [Example 14, tert-Butyl N-{3-[4-carbamoyl-5-(carbamoylamino)-2-thienyl]benzyl}-L-leucinate]
< 1000 nM	< 1000 nM	< 1000 nM	NC(=O)Nc1sc(-c2cccc(CCN[C@H](C(=O)OC3CCCC3)c3ccccc3)c2)cc1C(N)=O [Example 19, Cyclopentyl (2S)-[(2-{3-[4-carbamoyl-5-(carbamoylamino)-2-thienyl]phenyl}ethyl)amino](phenyl)acetate]
< 1000 nM	< 1000 nM	< 1000 nM	CC(C)C[C@H](NC/C=C/c1ccc(-c2cc(C(N)=O)c(NC(N)=O)s2)cc1)C(=O)OC1CCCC1 [Example 29, Cyclopentyl N-[(2E)-3-{4-[4-carbamoyl-5-(carbamoylamino)-2-thienyl]phenyl}Prop-2-en-1-yl]-L-leucinate]
< 1000 nM	1000 to 5000 nM	1000 to 5000 nM	NC(=O)Nc1sc(-c2ccc(/C=C/CN[C@H](C(=O)OC3CCCC3)c3ccccc3)cc2)cc1C(N)=O [Example 41, Cyclopentyl (2S)-{[(2E)-3-{4-[4-carbamoyl-5-(carbamoylamino)-2-thienyl]phenyl}prop-2-en-1-yl]amino}(phenyl)acetate]
< 1000 nM	1000 to 5000 nM	> 5000 nM	CC(C)C[C@H](NC/C=C/c1ccc(-c2cc(C(N)=O)c(NC(N)=O)s2)cc1)C(=O)OC(C)(C)C [Example 42, tert-Butyl N-[(2E)-3-{4-[4-carbamoyl-5-(carbamoylamino)-2-thienyl]phenyl}-prop-2-en-1-yl]-L-leucinate]
< 1000 nM	–	1000 to 5000 nM	CC(C)C[C@@H](NC/C=C/c1ccc(-c2cc(C(N)=O)c(NC(N)=O)s2)cc1)C(=O)OC1CCCC1 [Example 46, Cyclopentyl N-[(2E)-3-{4-[4-carbamoyl-5-(carbamoylamino)-2-thienyl]phenyl}prop-2-en-1-yl]-D-leucinate]
< 1000 nM	< 1000 nM	< 1000 nM	CC(C)C[C@H](NC/C=C/c1cccc(-c2cc(C(N)=O)c(NC(N)=O)s2)c1)C(=O)OC1CCCC1 [Example 49, Cyclopentyl N-[(2E)-3-{3-[4-carbamoyl-5-(carbamoylamino)-2-thienyl]phenyl}prop-2-en-1-yl]-L-leucinate]
